This is an account of results in US4656166A, “Antibiotic compounds derived from cephalosporins, process for their production and pharmaceutical compositions” (Sanofi, priority 1983, dated 1987).

Each structure is given as a SMILES string. ≈ marks a conversion by molar mass, not a printed value. Read-outs that look alike come from different tables or passages of the source. A value given as a limit tells only on which side of the number the result lay.

Broadly, the MIC is the least concentration at which growth counts as inhibited.

Assay [1] deals with Escherichia coli SOL 90. In words: MIC, in vitro dilution method, Escherichia coli SOL 90 (Table III). The assay is classed as cell-based. Conditions: SOL90. In a few lines:
(§1)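 In vitro dilution method, Gram-negative strain panel; read-out = minimum inhibiting concentration, μg/ml.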

Another assay has as its system Citrobacter RL 49. In words: MIC, in vitro dilution method, Citrobacter RL 49 (Table III). The assay is classed as cell-based. Particulars: RL49. The method, boiled down:
as §1

In assay [2] the test system is Proteus vulgaris RL 99 bis. In words: MIC, in vitro dilution method, Proteus vulgaris RL 99 bis (Table III). The assay is classed as cell-based. Conditions: RL99BIS. The method, boiled down:
as §1

The subject of a further assay is Serratia RL 72. In words: MIC, in vitro dilution method, Serratia RL 72 (Table III). Particulars: RL72. The assay is classed as cell-based. In a few lines: as §1
In another assay the test system is Klebsiella RO 30. The assay is described as follows: MIC, in vitro dilution method, Klebsiella RO 30 (Table III). The assay is classed as cell-based. Particulars: RO30. The method, boiled down:
as §1

Another assay has as its system Enterobacter RO 154. The assay is described as follows: MIC, in vitro dilution method, Enterobacter RO 154 (Table III). The assay is classed as cell-based. Conditions: RO154. In a few lines:
as §1

In the next assay the test system is Pseudomonas RL 112. In words: MIC, in vitro dilution method, Pseudomonas RL 112 (Table III). Conditions: RL112. The assay is classed as cell-based. The method, boiled down: as §1
The test system of another assay is Escherichia coli 255. The assay is described as follows: MIC on beta-lactamase producing strain Escherichia coli 255 (Table IV). The assay is classed as cell-based. Particulars: Escherichia coli 255, producing beta-lactamases; read-out: MIC. As to the method:
(§2) To evaluate the stability of these products towards beta-lactamases, their MIC was determined on isogenic strains producing and not producing beta-lactamases.
(§3) The results are expressed in μg/ml in Table IV.

The subject of another assay is Escherichia coli 255/L.7. In words: MIC on strain not producing beta-lactamase, Escherichia coli 255/L.7 (Table IV). The assay is classed as cell-based. Conditions: Escherichia coli 255/L.7 *, not producing beta-lactamases; read-out: MIC. As to the method: as §2, §3
The test system of assay [3] is Serrtia liquefaciens SL/326 A. The assay is described as follows: MIC on beta-lactamase producing strain Serratia liquefaciens SL/326 A (Table IV). The assay is classed as cell-based. As to the method: as §2, §3
Assay [4] has as its system Serrtia liquefaciens SL 1326 S. In words: MIC on strain not producing beta-lactamase, Serratia liquefaciens SL 1326 S (Table IV). Conditions: SL1326S, not producing beta-lactamases. The assay is classed as cell-based. As to the method:
as §2, §3

Assay [5] concerns Proteus vulgaris GN 76/C.1. The assay is described as follows: MIC on beta-lactamase producing strain Proteus vulgaris GN 76/C.1 (Table IV). Conditions: GN76. The assay is classed as cell-based. As to the method:
as §2, §3

For assay [6], the system named is Proteus vulgaris GN 76/C.1/3. In words: MIC on strain not producing beta-lactamase, Proteus vulgaris GN 76/C.1/3 (Table IV). The assay is classed as cell-based. Particulars: GN76, not producing beta-lactamases. As to the method: as §2, §3
The test system of assay [7] is Escherichia coli SOL 90. In words: septicemic model of the mouse, Escherichia coli SOL 90 (Table V). The assay is classed as in vivo. Conditions: SOL90, sc, 96 h, mouse septicemia, sub-cutaneous, 1 to 5 hours after inoculation, 4 days observation, read-out: DE50 (the source's name). As to the method:
The therapeutic effectiveness of the products was determined on the septicemic model of the mouse. the septicemia was initiated by the intraperitoneal innoculation of 0.5 ml of a suitable dilution of a suspension of the Escherichia coli SOL 90 strain. The products were administered in solution in a phosphate buffer pH 7.0 in a volume of 0.2 ml sub-cutaneously to batches of 10 mice, 1 to 5 hours after innoculation of the microorganism. After 4 days of observation in the course of which the mortality was noted, the 50% effective doses (DE 50) were calculated by the Muench and Reed method.

Where [8] appears, read: Escherichia coli SOL 90, dilution method, read-out: MIC.
The mark [9] stands for this setting: Klebsiella RO 30, dilution method, read-out: MIC.
Setting [10] is: Enterobacter RO 154, dilution method, read-out: MIC.
[11] abbreviates: Citrobacter RL 49, dilution method, read-out: MIC.

In the case of `CC(C)(O/N=C(\C(=O)NC1C(=O)N2C(C(=O)O)=C(COC(=O)CC3CCNCC3)C[S+]([O-])C12)c1csc(N)n1)C(=O)O` (stereo not shown) [42 474], the minimum inhibitory concentration (MIC) in the assay on Escherichia coli SOL 90 [1] (setting [8]) is 0.25 µg/mL (≈ 0.399 µM); against Citrobacter RL 49 (Citrobacter) it was at most 0.125 µg/mL; in [2] (Proteus vulgaris), at most 0.125 µg/mL; against Serratia RL 72, 0.25 µg/mL (≈ 0.399 µM); with Klebsiella RO 30 (setting [9]), 0.25 µg/mL (≈ 0.399 µM); against Enterobacter RO 154 (Enterobacter), at most 0.125 µg/mL. Also, the minimal inhibitory concentration (MIC) in the assay with Pseudomonas RL 112 is 4 µg/mL (≈ 6.38 µM); with Escherichia coli 255, 0.0625 µg/mL (≈ 0.0997 µM); in the assay with Escherichia coli 255/L.7, 0.0625 µg/mL (≈ 0.0997 µM); in assay [3], 0.125 µg/mL (≈ 0.199 µM); in assay [4], at most 0.0312 µg/mL; in [5] (Proteus vulgaris), 0.0625 µg/mL (≈ 0.0997 µM). In assay [6], this compound came in with a minimum inhibitory concentration (MIC) of 0.0625 µg/mL (≈ 0.0997 µM).

On to `Cc1c(CN)cccc1C(=O)OCC1=C(C(=O)O)N2C(=O)C(NC(=O)/C(=N\OC(C)(C)C(=O)O)c3csc(N)n3)C2[S+]([O-])C1` (stereo not shown) [42 456], for which the MIC is 0.25 µg/mL (≈ 0.385 µM) in the assay with Escherichia coli SOL 90 [1] (setting [8]); at most 0.125 µg/mL with Citrobacter RL 49 (Citrobacter); at most 0.125 µg/mL in assay [2] (Proteus vulgaris); 0.5 µg/mL (≈ 0.771 µM) with Serratia RL 72; at most 0.125 µg/mL in the assay on Klebsiella RO 30 (Klebsiella); at most 0.125 µg/mL against Enterobacter RO 154 (Enterobacter). The minimum inhibitory concentration (MIC) against Pseudomonas RL 112 is 4 µg/mL (≈ 6.17 µM); in the assay on Escherichia coli 255 it was 0.0625 µg/mL (≈ 0.0964 µM); in the assay with Escherichia coli 255/L.7 it was at most 0.0312 µg/mL; in assay [3], 0.25 µg/mL (≈ 0.385 µM); in assay [4], 0.0625 µg/mL (≈ 0.0964 µM); in [5] (Proteus vulgaris), at most 0.0312 µg/mL. The MIC in assay [6] worked out at 0.125 µg/mL (≈ 0.193 µM).

On to `CC(C)(O/N=C(\C(=O)NC1C(=O)N2C(C(=O)O)=C(COC(=O)c3ccc(NC(=O)CN)cc3)C[S+]([O-])C12)c1csc(N)n1)C(=O)O` (stereo not shown) [42 467], for which the MIC in the assay with Escherichia coli SOL 90 [1] (setting [8]) is 0.25 µg/mL (≈ 0.369 µM); with Citrobacter RL 49 (Citrobacter), at most 0.125 µg/mL; in [2] (Proteus vulgaris), at most 0.125 µg/mL; in the assay with Serratia RL 72, 2 µg/mL (≈ 2.95 µM); in the assay on Klebsiella RO 30 (setting [9]), 0.25 µg/mL (≈ 0.369 µM); in the assay on Enterobacter RO 154 (setting [10]), 0.5 µg/mL (≈ 0.738 µM). Also, the minimum inhibitory concentration (MIC) in the assay on Pseudomonas RL 112 was 4 µg/mL (≈ 5.9 µM); with Escherichia coli 255, 0.0625 µg/mL (≈ 0.0922 µM); in the assay on Escherichia coli 255/L.7 it was at most 0.0312 µg/mL; in assay [3] it was 0.125 µg/mL (≈ 0.184 µM); in assay [4], 0.125 µg/mL (≈ 0.184 µM); in assay [5] (Proteus vulgaris), at most 0.0312 µg/mL. This compound also came in with an MIC in [6] of 0.0625 µg/mL (≈ 0.0922 µM).

Take `Cc1ccc(CN)c(C)c1C(=O)OCC1=C(C(=O)O)N2C(=O)C(NC(=O)/C(=N\OC(C)(C)C(=O)O)c3csc(N)n3)C2[S+]([O-])C1` (stereo not shown) [42 457]: the MIC in the assay with Escherichia coli SOL 90 [1] (setting [8]) was 0.5 µg/mL (≈ 0.754 µM); in the assay with Citrobacter RL 49 (setting [11]), 0.25 µg/mL (≈ 0.377 µM); in assay [2] (Proteus vulgaris) it was at most 0.125 µg/mL; in the assay with Serratia RL 72, 0.5 µg/mL (≈ 0.754 µM); in the assay with Klebsiella RO 30 (setting [9]), 0.25 µg/mL (≈ 0.377 µM); with Enterobacter RO 154 (setting [10]) it was 0.25 µg/mL (≈ 0.377 µM). Besides, the MIC was 8 µg/mL (≈ 12.1 µM) in the assay with Pseudomonas RL 112; 0.125 µg/mL (≈ 0.189 µM) in the assay on Escherichia coli 255; at most 0.0312 µg/mL in the assay with Escherichia coli 255/L.7; 0.0625 µg/mL (≈ 0.0943 µM) in [3]; 0.0625 µg/mL (≈ 0.0943 µM) in [4]; at most 0.0312 µg/mL in [5] (Proteus vulgaris). This compound yielded an MIC in assay [6] of 0.0625 µg/mL (≈ 0.0943 µM).

Take `CC(C)(O/N=C(\C(=O)NC1C(=O)N2C(C(=O)O)=C(COC(=O)c3ccc(CN)cc3)C[S+]([O-])C12)c1csc(N)n1)C(=O)O` (stereo not shown) [42 042]: the MIC with Escherichia coli SOL 90 [1] (setting [8]) was at most 0.12 µg/mL; with Citrobacter RL 49 (setting [11]) it was at most 0.12 µg/mL; in assay [2] (Proteus vulgaris RL 99 bis, dilution method, read-out: MIC) it was at most 0.12 µg/mL; in the assay on Serratia RL 72, 2 µg/mL (≈ 3.15 µM); in the assay on Klebsiella RO 30 (setting [9]) it was at most 0.12 µg/mL; in the assay with Enterobacter RO 154 (setting [10]) it was 1 µg/mL (≈ 1.58 µM). Also, the MIC against Pseudomonas RL 112 is 4 µg/mL (≈ 6.3 µM); in the assay on Escherichia coli 255 it was at most 0.12 µg/mL; in the assay on Escherichia coli 255/L.7, at most 0.12 µg/mL; in [3] it was 0.25 µg/mL (≈ 0.394 µM); in assay [4], at most 0.12 µg/mL; in [5] (Proteus vulgaris GN 76/C.1, producing beta-lactamases, read-out: MIC) it was at most 0.12 µg/mL. The MIC in [6] was at most 0.12 µg/mL. For the same compound, the ED50 with Escherichia coli SOL 90 [7] came out at 0.05 mg/kg.

On to `CNCc1ccc(C(=O)OCC2=C(C(=O)O)N3C(=O)C(NC(=O)/C(=N\OC(C)(C)C(=O)O)c4csc(N)n4)C3[S+]([O-])C2)cc1` (stereo not shown) [42 395], for which the MIC was at most 0.125 µg/mL in the assay with Escherichia coli SOL 90 [1] (Escherichia coli); at most 0.125 µg/mL against Citrobacter RL 49 (Citrobacter); at most 0.125 µg/mL in assay [2] (Proteus vulgaris); 0.5 µg/mL (≈ 0.771 µM) in the assay on Serratia RL 72; at most 0.125 µg/mL in the assay with Klebsiella RO 30 (Klebsiella); at most 0.125 µg/mL against Enterobacter RO 154 (Enterobacter). The MIC was 4 µg/mL (≈ 6.17 µM) against Pseudomonas RL 112; 0.0625 µg/mL (≈ 0.0964 µM) in the assay on Escherichia coli 255; 0.0625 µg/mL (≈ 0.0964 µM) with Escherichia coli 255/L.7; 0.125 µg/mL (≈ 0.193 µM) in [3]; at most 0.0312 µg/mL in assay [4]; at most 0.0312 µg/mL in assay [5] (Proteus vulgaris). In addition, the MIC in assay [6] was at most 0.0312 µg/mL.
